Among the data in US20220324835A1 (Nurix Therapeutics, Inc., priority 2018, published 2022) are fold induction and IC50 values, retold here.

Some results are limits rather than exact numbers.

In assay [1] the test system is T-cell. The experiment in a line: IL-2 secretion from T-cells co-stimulated with anti-CD3 and anti-CD28 antibody (Biological Example 2). The note with it: Homo sapiens, T-cell, fold change over baseline (anti-CD3/anti-CD28 stimulated T-cells without inhibitor), read-out: IL-2 secretion Anti-CD3/Anti-CD28 stimulation; for fold induction at 0.3 µM: 0.3 μM Cbl-b inhibitor; for fold induction at 1 µM: 1 μM Cbl-b inhibitor. Type of assay: cell-based, human. The method in brief: (§1)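 Values are fold-change over baseline: readings (IL-2 release, CD25 staining) from inhibitor-treated T-cells divided against untreated cells […]. No detailed procedure stated.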

Assay [2] has as its system T-cell. The experiment in a line: CD25 cell surface staining on T-cells co-stimulated with anti-CD3 and anti-CD28 antibody (Biological Example 2). The class given is cell-based, human. The note with it: Homo sapiens, T-cell, fold change over baseline (anti-CD3/anti-CD28 stimulated T-cells without inhibitor), read-out: CD25 staining Anti-CD3/Anti-CD28 stimulation; for fold induction at 0.3 µM: 0.3 μM Cbl-b inhibitor; for fold induction at 1 µM: 1 μM Cbl-b inhibitor. The method in brief:
as §1

The test system of assay [3] is T-cell. As to the kind of experiment: CD25 cell surface staining on T-cells stimulated with anti-CD3 antibody alone (Biological Example 2). Type of assay: cell-based, human. The conditions noted are these: Homo sapiens, T-cell; 1 μM Cbl-b inhibitor; fold change over baseline (anti-CD3/anti-CD28 stimulated T-cells without inhibitor); read-out: CD25 staining Anti-CD3 stimulation.

In the next assay the target is Cbl-b (Homo sapiens, UniProt Q13191). The experiment in a line: Cbl-b activity assay (Cbl-b inhibition assay), TR-FRET of Cbl-b interaction with UbcH5B-Ub. The class given is biochemical. The conditions noted are these: assay buffer with 100 mM NaCl, 60 nM Src kinase; read-out: Cbl-b activity IC50. In short, it runs like this: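 Compound-treated Cbl-b was incubated 1.5 h with Src kinase (60 nM final; 30 nM for asterisked values, which also used 50 mM instead of 100 mM NaCl), 1 mM ATP and 5 mM MgCl2. Binding to fluorescent Ub-loaded UbcH5B (C85K mutant) was then read by TR-FRET after 1 h more.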
Cbl-b, sequence (Q13191 36-427): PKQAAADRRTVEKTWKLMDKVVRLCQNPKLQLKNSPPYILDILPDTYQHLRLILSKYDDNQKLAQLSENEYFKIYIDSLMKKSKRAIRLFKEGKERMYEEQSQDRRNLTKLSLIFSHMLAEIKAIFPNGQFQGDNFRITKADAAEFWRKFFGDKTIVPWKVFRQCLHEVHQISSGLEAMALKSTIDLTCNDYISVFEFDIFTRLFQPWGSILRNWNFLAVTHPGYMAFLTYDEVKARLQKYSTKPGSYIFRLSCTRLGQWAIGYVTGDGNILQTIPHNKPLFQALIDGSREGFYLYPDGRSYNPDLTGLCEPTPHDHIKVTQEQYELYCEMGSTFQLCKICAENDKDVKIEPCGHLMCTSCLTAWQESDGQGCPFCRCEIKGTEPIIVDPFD
On the technique in general: Time-resolved FRET reads energy transfer from a long-lived donor to a nearby acceptor.

As usually defined, the IC50 is the concentration that gives 50% inhibition. On to `C[C@H](c1cc2c(c(C(F)(F)F)c1)CN(c1cccc(C3([C@@H](F)c4nncn4C)COC3)c1)C2=O)N1CCC2(CC2)C1` [Example 576, 6-((R)-1-(5-azaspiro[2.4]heptan-5-yl)ethyl)-2-(3-(3-((R)-fluoro(4-methyl-4H-1,2,4-triazol-3-yl)methyl)oxetan-3-yl)phenyl)-4-(trifluoromethyl)isoindolin-1-one], for which the fold induction at 0.3 µM in the assay with T-cell [1] was above 7.5; in the assay with T-cell [2], above 1.76. Moreover, the fold induction at 1 µM in the assay on T-cell [1] is above 7.5; with T-cell [2] it was above 1.76; with T-cell [3], above 1. Moreover, on Cbl-b, the IC50 was below 100 nM.

For `Cn1cnnc1CC1(c2cccc(N3Cc4c(cc(CN5CCC(C)(F)CC5)cc4C(F)(F)F)C3=O)c2)COC1` [Example 620, 6-((4-fluoro-4-methylpiperidin-1-yl)methyl)-2-(3-(3-((4-methyl-4H-1,2,4-triazol-3-yl)methyl)oxetan-3-yl)phenyl)-4-(trifluoromethyl)isoindolin-1-one], the fold induction at 0.3 µM is above 7.5 in the assay on T-cell [1] and 1.31 to 1.5 in the assay on T-cell [2]. The results for the fold induction at 1 µM with T-cell [1], with T-cell [2] and with T-cell [3] were above 7.5, 1.31 to 1.5 and above 1, respectively. Also, the 50% inhibitory concentration (IC50) on Cbl-b was below 100 nM.

In the case of `C[C@@H]1CN(Cc2cc3c(c(C(F)(F)F)c2)CN(c2cccc(C4(Cc5nncn5C)COC4)c2)C3=O)CCO1` [Example 663b, (R)-2-(3-(3-((4-methyl-4H-1,2,4-triazol-3-yl)methyl)oxetan-3-yl)phenyl)-6-((2-methylmorpholino)methyl)-4-(trifluoromethyl)isoindolin-1-one], the fold induction at 0.3 µM was above 7.5 in the assay with T-cell [1] and 1.31 to 1.5 with T-cell [2]. Moreover, the fold induction at 1 µM is above 7.5 in the assay on T-cell [1], 1.31 to 1.5 with T-cell [2] and above 1 in the assay with T-cell [3]. On Cbl-b, the IC50 is below 100 nM.

With `Cn1cnnc1[C@@H](F)C1(c2cccc(N3Cc4c(cc(CN5CCC(F)CC5)cc4C(F)(F)F)C3=O)c2)COC1` [Example 670a, (S)-2-(3-(3-(fluoro(4-methyl-4H-1,2,4-triazol-3-yl)methyl)oxetan-3-yl)phenyl)-6-((4-fluoropiperidin-1-yl)methyl)-4-(trifluoromethyl)isoindolin-1-one], the fold induction at 0.3 µM in the assay on T-cell [1] is 5 to 7.5; in the assay with T-cell [2], 1.51 to 1.75. The fold induction at 1 µM in the assay on T-cell [1] was above 7.5; in the assay with T-cell [2], 1.51 to 1.75; in the assay with T-cell [3], above 1. The IC50 on Cbl-b is below 100 nM.

As for `Cn1cnnc1[C@H](F)C1(c2cccc(N3Cc4c(cc(CN5CCC(F)CC5)cc4C(F)(F)F)C3=O)c2)COC1` [Example 670b, (R)-2-(3-(3-(fluoro(4-methyl-4H-1,2,4-triazol-3-yl)methyl)oxetan-3-yl)phenyl)-6-((4-fluoropiperidin-1-yl)methyl)-4-(trifluoromethyl)isoindolin-1-one], the fold induction at 0.3 µM in the assay on T-cell [1] is above 7.5; in the assay on T-cell [2], above 1.76. For the same compound, the fold induction at 1 µM with T-cell [1] is above 7.5; in the assay with T-cell [2], above 1.76; in the assay on T-cell [3] it was above 1. Also, on Cbl-b, the IC50 was below 100 nM.
